The values that follow are results of earlier work, collected in paper PMC9643853, “Synthesis and evaluation of 3-alkynyl-5-aryl-7-aza-indoles as broad-spectrum antiviral agents” (Frontiers in Chemistry, 2022).

What is called EC50 is the midpoint of the concentration-response curve. By CC50 is commonly meant the concentration that lowers cell viability or growth by half.

The subject of one data set is VEEV (TC-83). Conditions: U-87 MG cells; recently reported; ref Pu et al., 2020; cited from earlier work.
The test system of a further data set is U-87 MG cells. Details: method as in Pu et al., 2020. Conditions: ref Pu et al., 2020; cited from earlier work.

Turning to `COc1cc(O)c2c(c1)/C=C/C[C@H](O)[C@H](O)C(=O)/C=C\C[C@H](C)OC2=O` [5Z-7-Oxozeanol], the EC50 with VEEV (TC-83) is 2.66 ± 0.13 µM. Further, the CC50 in the data set with U-87 MG cells was greater than 10 µM.
